Assay results from patent publication US20100137449A1, “SUBSTITUTED 1,3-CYCLOPENTADIONE MULTI-TARGET PROTEIN KINASE MODULATORS OF CANCER, ANGIOGENESIS AND THE INFLAMMATORY PATHWAYS ASSOCIATED THEREWITH” (METAPROTEOMICS, LLC, priority 2007, published 2010).

Legend:
Assay in all cases: KinaseProfiler Assay
Abl(m) = Abl(m) (Mus musculus, UniProt P00520)
CDK5/p25(h) = CDK5/p25(h) (Homo sapiens, UniProt Q00535)
CLK2(h) = CLK2(h) (Homo sapiens, UniProt P49760)
DAPK1(h) = DAPK1(h) (Homo sapiens, UniProt P53355)
EGFR(T790M, L858R)(h) = EGFR(T790M, L858R)(h) (Homo sapiens, UniProt P00533, L858R/T790M)
Fes(h) = Fes(h) (Homo sapiens, UniProt P07332)
IKKα(h) = molecular target: T1, IKKα(h) (Homo sapiens, UniProt O15111)
T1 sequence (O15111 1-745): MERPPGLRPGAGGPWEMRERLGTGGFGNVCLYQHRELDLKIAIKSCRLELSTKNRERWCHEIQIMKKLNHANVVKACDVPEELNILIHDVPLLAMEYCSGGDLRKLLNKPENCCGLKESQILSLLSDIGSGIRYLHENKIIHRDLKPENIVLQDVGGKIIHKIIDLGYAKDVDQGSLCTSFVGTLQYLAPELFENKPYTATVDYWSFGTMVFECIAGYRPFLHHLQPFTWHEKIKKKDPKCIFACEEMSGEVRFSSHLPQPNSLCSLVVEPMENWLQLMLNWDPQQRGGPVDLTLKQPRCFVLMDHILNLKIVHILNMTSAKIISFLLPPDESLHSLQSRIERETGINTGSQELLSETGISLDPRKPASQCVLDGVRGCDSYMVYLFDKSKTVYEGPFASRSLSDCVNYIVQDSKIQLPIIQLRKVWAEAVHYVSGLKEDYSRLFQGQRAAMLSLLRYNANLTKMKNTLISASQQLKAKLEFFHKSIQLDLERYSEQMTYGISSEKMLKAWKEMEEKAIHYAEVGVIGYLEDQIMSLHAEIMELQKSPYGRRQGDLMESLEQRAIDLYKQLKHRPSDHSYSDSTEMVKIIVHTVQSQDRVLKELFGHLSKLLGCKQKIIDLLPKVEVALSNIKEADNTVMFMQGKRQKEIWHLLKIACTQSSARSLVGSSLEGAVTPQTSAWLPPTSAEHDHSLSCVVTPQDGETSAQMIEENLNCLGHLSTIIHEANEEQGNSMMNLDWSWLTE

MAPKAP-K3(h) = MAPKAP-K3(h) (Homo sapiens, UniProt Q16644)
NLK(h) = molecular target: T2, NLK(h) (Homo sapiens, UniProt Q9UBE8)
T2 sequence (Q9UBE8 1-527): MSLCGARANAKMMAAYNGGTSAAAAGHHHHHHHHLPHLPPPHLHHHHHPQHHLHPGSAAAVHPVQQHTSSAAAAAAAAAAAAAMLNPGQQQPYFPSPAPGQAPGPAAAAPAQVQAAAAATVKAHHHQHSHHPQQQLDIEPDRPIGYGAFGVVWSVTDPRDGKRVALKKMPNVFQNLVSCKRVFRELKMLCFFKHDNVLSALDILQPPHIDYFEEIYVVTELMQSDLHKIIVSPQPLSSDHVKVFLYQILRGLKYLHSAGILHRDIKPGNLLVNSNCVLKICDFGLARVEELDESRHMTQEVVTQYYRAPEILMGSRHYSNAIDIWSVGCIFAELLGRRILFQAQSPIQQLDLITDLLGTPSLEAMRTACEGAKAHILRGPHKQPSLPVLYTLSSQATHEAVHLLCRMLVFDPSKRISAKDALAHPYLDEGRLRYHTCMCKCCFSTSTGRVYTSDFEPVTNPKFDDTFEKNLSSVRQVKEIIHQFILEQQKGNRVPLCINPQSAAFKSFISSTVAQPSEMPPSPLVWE

PAK4(h) = PAK4(h) (Homo sapiens, UniProt O96013)
Rsk4(h) = Rsk4(h) (Homo sapiens, UniProt Q9UK32)
ZIPK(h) = ZIPK(h) (Homo sapiens, UniProt O43293)
ZIPK(h), sequence (O43293 whole entry): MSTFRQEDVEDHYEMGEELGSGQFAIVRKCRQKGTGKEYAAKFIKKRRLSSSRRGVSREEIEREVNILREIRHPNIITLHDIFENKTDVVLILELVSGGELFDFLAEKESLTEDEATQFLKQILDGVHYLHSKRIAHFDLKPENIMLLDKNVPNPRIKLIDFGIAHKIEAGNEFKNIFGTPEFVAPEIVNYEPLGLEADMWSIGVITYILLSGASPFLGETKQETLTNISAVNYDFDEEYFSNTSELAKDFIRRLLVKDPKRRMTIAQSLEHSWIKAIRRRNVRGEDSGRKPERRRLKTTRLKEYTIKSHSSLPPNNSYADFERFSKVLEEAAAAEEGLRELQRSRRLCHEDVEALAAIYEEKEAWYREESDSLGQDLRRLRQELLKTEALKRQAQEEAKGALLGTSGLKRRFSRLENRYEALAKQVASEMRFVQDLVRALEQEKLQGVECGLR

MAPKAP-K3(h), sequence (Q16644 whole entry): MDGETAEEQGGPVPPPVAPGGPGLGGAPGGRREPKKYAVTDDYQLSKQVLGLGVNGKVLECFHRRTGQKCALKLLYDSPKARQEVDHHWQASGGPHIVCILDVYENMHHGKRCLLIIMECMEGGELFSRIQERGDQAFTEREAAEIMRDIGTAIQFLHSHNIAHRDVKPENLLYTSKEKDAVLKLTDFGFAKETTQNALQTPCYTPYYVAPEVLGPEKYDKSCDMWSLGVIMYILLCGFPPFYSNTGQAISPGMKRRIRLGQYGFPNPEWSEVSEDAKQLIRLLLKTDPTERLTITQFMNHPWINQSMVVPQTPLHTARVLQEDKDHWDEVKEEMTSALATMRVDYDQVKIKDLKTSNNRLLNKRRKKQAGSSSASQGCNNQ
PAK4(h), sequence (O96013 whole entry): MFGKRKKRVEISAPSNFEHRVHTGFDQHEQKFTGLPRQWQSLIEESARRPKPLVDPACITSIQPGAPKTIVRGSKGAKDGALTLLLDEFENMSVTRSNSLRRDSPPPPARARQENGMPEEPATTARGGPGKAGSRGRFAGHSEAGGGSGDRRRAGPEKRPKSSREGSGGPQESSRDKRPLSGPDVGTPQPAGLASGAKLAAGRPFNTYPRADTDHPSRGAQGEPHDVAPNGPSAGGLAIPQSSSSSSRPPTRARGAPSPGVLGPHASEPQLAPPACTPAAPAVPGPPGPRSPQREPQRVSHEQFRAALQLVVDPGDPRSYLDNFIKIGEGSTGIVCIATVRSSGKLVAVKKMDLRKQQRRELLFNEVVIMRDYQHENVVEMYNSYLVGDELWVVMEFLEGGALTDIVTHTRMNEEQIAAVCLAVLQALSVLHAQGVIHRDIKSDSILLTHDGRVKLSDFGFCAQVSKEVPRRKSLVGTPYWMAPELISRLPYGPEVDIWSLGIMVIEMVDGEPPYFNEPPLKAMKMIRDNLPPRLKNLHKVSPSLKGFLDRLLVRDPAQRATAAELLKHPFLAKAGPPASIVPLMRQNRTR
CLK2(h), sequence (P49760 whole entry): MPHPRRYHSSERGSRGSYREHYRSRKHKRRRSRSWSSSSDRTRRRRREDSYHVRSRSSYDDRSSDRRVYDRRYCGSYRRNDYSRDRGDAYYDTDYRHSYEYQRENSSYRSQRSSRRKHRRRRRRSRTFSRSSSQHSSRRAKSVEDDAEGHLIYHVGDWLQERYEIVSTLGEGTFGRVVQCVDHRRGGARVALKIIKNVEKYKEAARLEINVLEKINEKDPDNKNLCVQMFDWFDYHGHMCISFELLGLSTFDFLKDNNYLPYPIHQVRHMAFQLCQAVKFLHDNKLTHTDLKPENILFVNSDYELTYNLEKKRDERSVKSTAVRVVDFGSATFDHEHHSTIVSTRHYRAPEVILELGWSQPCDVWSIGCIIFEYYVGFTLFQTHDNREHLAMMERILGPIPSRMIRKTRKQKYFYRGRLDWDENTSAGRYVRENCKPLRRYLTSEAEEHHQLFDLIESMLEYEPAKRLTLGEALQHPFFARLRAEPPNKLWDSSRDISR
DAPK1(h), sequence (P53355 whole entry): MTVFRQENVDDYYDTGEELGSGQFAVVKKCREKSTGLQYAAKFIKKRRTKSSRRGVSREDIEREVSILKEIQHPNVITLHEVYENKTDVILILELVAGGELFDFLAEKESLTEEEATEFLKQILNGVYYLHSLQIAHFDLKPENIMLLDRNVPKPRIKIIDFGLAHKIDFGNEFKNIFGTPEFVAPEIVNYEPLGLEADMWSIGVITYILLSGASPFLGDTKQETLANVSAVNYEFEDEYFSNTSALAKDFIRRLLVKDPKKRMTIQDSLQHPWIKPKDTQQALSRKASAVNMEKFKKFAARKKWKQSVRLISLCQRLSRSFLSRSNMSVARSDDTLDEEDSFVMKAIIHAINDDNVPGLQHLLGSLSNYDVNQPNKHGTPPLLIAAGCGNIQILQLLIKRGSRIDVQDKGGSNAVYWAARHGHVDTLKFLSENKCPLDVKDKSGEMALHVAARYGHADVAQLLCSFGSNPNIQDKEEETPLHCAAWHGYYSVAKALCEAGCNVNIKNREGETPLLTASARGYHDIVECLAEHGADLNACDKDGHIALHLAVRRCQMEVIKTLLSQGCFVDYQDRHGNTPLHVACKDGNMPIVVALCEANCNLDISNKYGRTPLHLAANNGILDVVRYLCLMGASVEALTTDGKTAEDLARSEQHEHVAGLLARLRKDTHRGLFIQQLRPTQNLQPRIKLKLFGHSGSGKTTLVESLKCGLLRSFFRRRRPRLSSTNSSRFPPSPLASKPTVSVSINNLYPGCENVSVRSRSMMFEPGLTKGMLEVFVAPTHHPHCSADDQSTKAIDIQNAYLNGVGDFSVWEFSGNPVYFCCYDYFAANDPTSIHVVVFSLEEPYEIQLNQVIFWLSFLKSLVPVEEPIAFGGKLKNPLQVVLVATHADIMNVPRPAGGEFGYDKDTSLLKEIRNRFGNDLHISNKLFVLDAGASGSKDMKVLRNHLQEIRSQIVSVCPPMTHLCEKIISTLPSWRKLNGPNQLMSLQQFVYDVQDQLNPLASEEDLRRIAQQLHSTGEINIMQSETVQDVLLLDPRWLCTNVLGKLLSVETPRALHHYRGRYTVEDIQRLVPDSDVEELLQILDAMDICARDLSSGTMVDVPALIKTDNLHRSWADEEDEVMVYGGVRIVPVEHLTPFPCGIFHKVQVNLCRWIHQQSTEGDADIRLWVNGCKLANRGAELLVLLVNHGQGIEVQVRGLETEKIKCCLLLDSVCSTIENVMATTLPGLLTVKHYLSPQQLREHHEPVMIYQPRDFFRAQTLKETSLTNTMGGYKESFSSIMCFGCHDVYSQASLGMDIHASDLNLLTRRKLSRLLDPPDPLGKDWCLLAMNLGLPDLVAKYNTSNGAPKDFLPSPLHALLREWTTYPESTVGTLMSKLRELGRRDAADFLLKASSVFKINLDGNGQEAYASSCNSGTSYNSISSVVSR
CDK5/p25(h), sequence (Q00535 whole entry): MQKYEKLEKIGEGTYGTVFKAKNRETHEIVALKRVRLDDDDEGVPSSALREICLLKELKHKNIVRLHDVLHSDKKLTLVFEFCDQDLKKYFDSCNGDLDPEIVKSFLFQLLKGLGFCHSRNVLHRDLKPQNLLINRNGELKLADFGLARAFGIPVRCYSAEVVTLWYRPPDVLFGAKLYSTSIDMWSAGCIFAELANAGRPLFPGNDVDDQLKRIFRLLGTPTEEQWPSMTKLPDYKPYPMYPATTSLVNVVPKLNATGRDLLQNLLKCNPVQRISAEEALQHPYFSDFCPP
CDK5/p25(h), sequence (Q15078 99-307 partner limits assumed): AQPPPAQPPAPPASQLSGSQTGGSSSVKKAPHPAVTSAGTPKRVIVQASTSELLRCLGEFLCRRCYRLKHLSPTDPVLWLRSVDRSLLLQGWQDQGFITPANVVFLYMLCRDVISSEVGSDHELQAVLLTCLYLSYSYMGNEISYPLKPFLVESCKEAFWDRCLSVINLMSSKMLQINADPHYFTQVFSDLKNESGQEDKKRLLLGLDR
EGFR(T790M, L858R)(h), sequence (P00533 25-1210 T790M/L858R): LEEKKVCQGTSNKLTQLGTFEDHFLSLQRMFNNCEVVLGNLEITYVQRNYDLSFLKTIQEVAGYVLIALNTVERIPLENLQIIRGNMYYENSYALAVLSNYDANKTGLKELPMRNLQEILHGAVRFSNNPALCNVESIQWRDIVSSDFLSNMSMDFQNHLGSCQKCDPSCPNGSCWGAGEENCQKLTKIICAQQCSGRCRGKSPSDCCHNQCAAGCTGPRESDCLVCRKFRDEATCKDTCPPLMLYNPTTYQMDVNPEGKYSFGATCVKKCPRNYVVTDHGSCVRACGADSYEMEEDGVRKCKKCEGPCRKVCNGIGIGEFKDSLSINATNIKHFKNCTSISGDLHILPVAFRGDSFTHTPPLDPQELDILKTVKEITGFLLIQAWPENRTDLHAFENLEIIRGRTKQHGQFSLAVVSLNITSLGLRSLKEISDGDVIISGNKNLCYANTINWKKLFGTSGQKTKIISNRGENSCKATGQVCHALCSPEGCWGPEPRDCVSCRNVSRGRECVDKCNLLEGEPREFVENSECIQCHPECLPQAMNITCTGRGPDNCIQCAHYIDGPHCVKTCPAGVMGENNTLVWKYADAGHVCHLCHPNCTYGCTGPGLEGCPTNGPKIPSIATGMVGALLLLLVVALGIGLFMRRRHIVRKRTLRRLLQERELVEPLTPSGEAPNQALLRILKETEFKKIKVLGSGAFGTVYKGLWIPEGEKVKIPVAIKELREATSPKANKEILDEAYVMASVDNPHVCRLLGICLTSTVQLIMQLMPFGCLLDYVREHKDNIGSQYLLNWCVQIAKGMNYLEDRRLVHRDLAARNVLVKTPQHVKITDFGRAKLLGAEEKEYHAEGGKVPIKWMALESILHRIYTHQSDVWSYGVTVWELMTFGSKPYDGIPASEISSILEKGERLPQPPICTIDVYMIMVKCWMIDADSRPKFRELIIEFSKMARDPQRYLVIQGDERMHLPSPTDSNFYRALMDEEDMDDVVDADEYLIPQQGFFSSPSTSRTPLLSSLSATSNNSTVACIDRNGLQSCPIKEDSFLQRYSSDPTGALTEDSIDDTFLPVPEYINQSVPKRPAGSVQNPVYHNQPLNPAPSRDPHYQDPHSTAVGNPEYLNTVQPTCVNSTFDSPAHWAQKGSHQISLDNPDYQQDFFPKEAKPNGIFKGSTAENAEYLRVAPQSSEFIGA

With CC(C)CCC(=O)[C@]1(O)C(O)=C(C(=O)C(C)C)C(=O)[C@H]1CCC(C)C [TH2, tetrahydroiso-cohumulone] the kinase inhibition (Abl(m); 1 μg/ml) was 98% of control, the kinase inhibition (Abl(m); 5 μg/ml) was 91% of control and the kinase inhibition (Abl(m); 25 μg/ml) was 69% of control. For the same compound, the kinase inhibition (Abl(m); 50 μg/ml) was 32% of control, the kinase inhibition (Abl(m); 100 μg/ml) was 48% of control and the kinase inhibition (CDK5/p25(h); 1 μg/ml) was 93% of control. The kinase inhibition (CDK5/p25(h); 5 μg/ml) was 96% of control, the kinase inhibition (CDK5/p25(h); 25 μg/ml) was 103% of control and the kinase inhibition (CDK5/p25(h); 50 μg/ml) was 88% of control. The kinase inhibition (CDK5/p25(h); 100 μg/ml) was 77% of control, the kinase inhibition (CLK2(h); 1 μg/ml) was 103% of control and the kinase inhibition (CLK2(h); 5 μg/ml) was 100% of control. For the same compound, the kinase inhibition (CLK2(h); 25 μg/ml) was 110% of control, the kinase inhibition (CLK2(h); 50 μg/ml) was 101% of control and the kinase inhibition (CLK2(h); 100 μg/ml) was 96% of control. For the same compound, the kinase inhibition (DAPK1(h); 1 μg/ml) was 63% of control, the kinase inhibition (DAPK1(h); 5 μg/ml) was 40% of control and the kinase inhibition (DAPK1(h); 25 μg/ml) was 32% of control. For the same compound, the kinase inhibition (DAPK1(h); 50 μg/ml) was 25% of control, the kinase inhibition (DAPK1(h); 100 μg/ml) was 19% of control and the kinase inhibition (EGFR(T790M, L858R)(h); 1 μg/ml) was 104% of control. For the same compound, the kinase inhibition (EGFR(T790M, L858R)(h); 5 μg/ml) was 109% of control, the kinase inhibition (EGFR(T790M, L858R)(h); 25 μg/ml) was 95% of control and the kinase inhibition (EGFR(T790M, L858R)(h); 50 μg/ml) was 94% of control. For the same compound, the kinase inhibition (EGFR(T790M, L858R)(h); 100 μg/ml) was 82% of control, the kinase inhibition (Fes(h); 1 μg/ml) was 140% of control and the kinase inhibition (Fes(h); 5 μg/ml) was 120% of control. The kinase inhibition (Fes(h); 25 μg/ml) was 105% of control, the kinase inhibition (Fes(h); 50 μg/ml) was 99% of control and the kinase inhibition (Fes(h); 100 μg/ml) was 86% of control. For the same compound, the kinase inhibition (IKKα(h); 1 μg/ml) was 99% of control, the kinase inhibition (IKKα(h); 5 μg/ml) was 108% of control and the kinase inhibition (IKKα(h); 25 μg/ml) was 114% of control. The kinase inhibition (IKKα(h); 50 μg/ml) was 114% of control, the kinase inhibition (IKKα(h); 100 μg/ml) was 120% of control and the kinase inhibition (MAPKAP-K3(h); 1 μg/ml) was 101% of control. For the same compound, the kinase inhibition (MAPKAP-K3(h); 5 μg/ml) was 100% of control, the kinase inhibition (MAPKAP-K3(h); 25 μg/ml) was 109% of control and the kinase inhibition (MAPKAP-K3(h); 50 μg/ml) was 104% of control. For the same compound, the kinase inhibition (MAPKAP-K3(h); 100 μg/ml) was 101% of control, the kinase inhibition (NLK(h); 1 μg/ml) was 105% of control and the kinase inhibition (NLK(h); 5 μg/ml) was 104% of control. The kinase inhibition (NLK(h); 25 μg/ml) was 98% of control, the kinase inhibition (NLK(h); 50 μg/ml) was 96% of control and the kinase inhibition (NLK(h); 100 μg/ml) was 85% of control. For the same compound, the kinase inhibition (PAK4(h); 1 μg/ml) was 105% of control, the kinase inhibition (PAK4(h); 5 μg/ml) was 84% of control and the kinase inhibition (PAK4(h); 25 μg/ml) was 98% of control. The kinase inhibition (PAK4(h); 50 μg/ml) was 110% of control, the kinase inhibition (PAK4(h); 100 μg/ml) was 99% of control and the kinase inhibition (Rsk4(h); 1 μg/ml) was 79% of control. For the same compound, the kinase inhibition (Rsk4(h); 5 μg/ml) was 71% of control, the kinase inhibition (Rsk4(h); 25 μg/ml) was 47% of control and the kinase inhibition (Rsk4(h); 50 μg/ml) was 31% of control. For the same compound, the kinase inhibition (Rsk4(h); 100 μg/ml) was 17% of control, the kinase inhibition (ZIPK(h); 1 μg/ml) was 106% of control and the kinase inhibition (ZIPK(h); 5 μg/ml) was 96% of control. The kinase inhibition (ZIPK(h); 25 μg/ml) was 91% of control, the kinase inhibition (ZIPK(h); 50 μg/ml) was 81% of control and the kinase inhibition (ZIPK(h); 100 μg/ml) was 76% of control.
